In US8258293B2, “Tetrahydroquinoline derivatives” (MSD OSS B.V., priority 2001, dated 2012):

Target: T1, human FSH receptor (Homo sapiens, UniProt P23945)
T1 construct: expressed in transfected cells; host or cells: Chinese Hamster Ovary (CHO) cells
T1 sequence (P23945 18-695): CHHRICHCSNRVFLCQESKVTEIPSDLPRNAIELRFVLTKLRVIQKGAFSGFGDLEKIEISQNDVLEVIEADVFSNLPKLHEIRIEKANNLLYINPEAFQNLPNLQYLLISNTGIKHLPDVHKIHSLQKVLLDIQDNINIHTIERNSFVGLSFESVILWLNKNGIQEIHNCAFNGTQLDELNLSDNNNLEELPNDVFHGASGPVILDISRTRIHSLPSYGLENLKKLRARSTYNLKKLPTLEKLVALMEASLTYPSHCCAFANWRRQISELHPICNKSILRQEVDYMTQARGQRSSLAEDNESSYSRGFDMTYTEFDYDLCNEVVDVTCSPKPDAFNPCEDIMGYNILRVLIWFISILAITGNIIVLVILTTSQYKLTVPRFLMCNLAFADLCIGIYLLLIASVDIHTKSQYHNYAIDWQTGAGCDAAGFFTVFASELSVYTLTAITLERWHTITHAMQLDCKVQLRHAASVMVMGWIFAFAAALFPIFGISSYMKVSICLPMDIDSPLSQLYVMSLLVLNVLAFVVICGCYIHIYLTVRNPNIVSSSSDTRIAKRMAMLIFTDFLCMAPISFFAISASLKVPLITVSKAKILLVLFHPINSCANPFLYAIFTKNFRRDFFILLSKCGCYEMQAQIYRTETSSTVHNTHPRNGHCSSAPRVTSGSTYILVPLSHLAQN
Experiment: CHO-FSH in vitro bio activity (CRE-luciferase reporter)
Format: cell-based
Conditions: CHO cells stably transfected with human FSH receptor and CRE/luciferase reporter; half-maximal (50%) stimulation
Description: FSH activity of compounds were tested in Chinese Hamster Ovary (CHO) cells stably transfected with the human FSH receptor and cotransfected with a cAMP responsive element (CRE)/promotor directing the expression of a firefly luciferase reporter gene. Binding of ligand to the Gs-coupled FSH receptor will result in an increase of cAMP, which in turn will induce an increased transactivation of the luciferase reporter construct. The luciferase signal was quantified using a luminescence counter. For test compounds, EC50 values (concentration of test compound causing half-maximal (50%) stimulation) were calculated. For that purpose the software program GraphPad PRISM, version 3.0 (GraphPad software Inc., San Diego) was used.

Compound | EC50 [nM]
COc1ccc(Br)c(OC)c1C(=O)Nc1ccc2c(c1)C(C)(c1ccccc1)CC(C)(C)N2C(C)=O (stereo not shown) [Example 11, 1-Acetyl-6-(3-bromo-2,6-dimethoxybenzoyl)amino-4-phenyl-1,2,3,4-tetrahydro-2,2,4-trimethylquinoline] | < 100
CC(=O)N1c2cc(C)c(NC(=O)c3ccc(-c4ccccc4)cc3)cc2C(C)(c2ccccc2)CC1(C)C (stereo not shown) [Example 45, 1-Acetyl-6-(4-phenylbenzoyl)amino-4-phenyl-1,2,3,4-tetrahydro-2,2,4,7-tetramethylquinoline] | < 100
CC(=O)N1c2ccc(NC(=O)OC(C)(C)C)cc2C(C)(c2ccccc2)CC1(C)C (stereo not shown) [Example 1, 1-Acetyl-6-(tert-butoxycarbonyl)amino-4-phenyl-1,2,3,4-tetrahydro-2,2,4-trimethylquinoline] | < 100
CC(=O)N1c2ccc(NC(=O)c3ccccc3OC(=O)c3cc(C)on3)cc2C(C)(c2ccccc2)CC1(C)C (stereo not shown) [Example 61, 1-Acetyl-6-(2-[5-methylisoxazole-3-carbonyl]oxybenzoyl)amino-4-phenyl-1,2,3,4-tetrahydro-2,2,4-trimethylquinoline] | < 100
COc1ccc(-c2ccccc2)c(C(=O)Nc2ccc3c(c2)C(C)(c2ccccc2)CC(C)(C)N3C(C)=O)c1 (stereo not shown) [Example 15, 1-Acetyl-4-phenyl-6-(2-phenyl-5-methoxybenzoyl)amino-1,2,3,4-tetrahydro-2,2,4-trimethylquinoline] | < 100
CC(=O)N1c2ccc(NC(=O)c3ccccc3Nc3ccccc3)cc2C(C)(c2ccccc2)CC1(C)C (stereo not shown) [Example 64, 1-Acetyl-6-(2-phenylaminobenzoyl)amino-4-phenyl-1,2,3,4-tetrahydro-2,2,4-trimethylquinoline] | < 100
CC(=O)N1c2ccc(NC(=O)c3ccc(Cl)cc3)cc2C(C)(c2ccccc2)CC1(C)C (stereo not shown) [Example 6, 1-Acetyl-6-(4-chlorobenzoyl)amino-4-phenyl-1,2,3,4-tetrahydro-2,2,4-trimethylquinoline] | < 100
CC(=O)N1c2ccc(NC(=O)CCc3ccccc3)cc2C(C)(c2ccccc2)CC1(C)C (stereo not shown) [Example 21, 1-Acetyl-4-phenyl-6-(3-phenylpropionyl)amino-1,2,3,4-tetrahydro-2,2,4-trimethylquinoline] | < 100
CC(=O)N1c2ccc(NC(=O)c3ccc([N+](=O)[O-])cc3)cc2C(C)(c2ccccc2)CC1(C)C (stereo not shown) [Example 9, 1-Acetyl-6-(4-nitrobenzoyl)amino-4-phenyl-1,2,3,4-tetrahydro-2,2,4-trimethylquinoline] | < 100
COc1ccc(COC(=O)c2ccc3c(c2)C(C)(c2ccccc2)CC(C)(C)N3C(C)=O)cc1 (stereo not shown) [Example 36, 1-Acetyl-6-(4-methoxybenzyloxy)carbonyl-4-phenyl-1,2,3,4-tetrahydro-2,2,4-trimethylquinoline] | < 100
CCCc1ccc(C(=O)Nc2ccc3c(c2)C(C)(c2ccccc2)CC(C)(C)N3C(C)=O)cc1 (stereo not shown) [Example 10, 1-Acetyl-4-phenyl-6-(4-n-propylbenzoyl)amino-1,2,3,4-tetrahydro-2,2,4-trimethylquinoline] | < 100
CC(=O)N1c2ccc(NC(=O)c3cccc(C)c3-c3ccccc3)cc2C(C)(c2ccccc2)CC1(C)C (stereo not shown) [Example 16, 1-Acetyl-4-phenyl-6-(2-phenyl-3-methylbenzoyl)amino-1,2,3,4-tetrahydro-2,2,4-trimethylquinoline] | < 100
CC(=O)N1c2ccc(NC(=O)c3ccco3)cc2C(C)(c2ccccc2)CC1(C)C (stereo not shown) [Example 22, 1-Acetyl-6-(2-furoyl)amino-4-phenyl-1,2,3,4-tetrahydro-2,2,4-trimethylquinoline] | < 100
CC(=O)N1c2ccc(NC(=O)c3ccccc3)cc2C(C)(c2ccccc2)CC1(C)C (stereo not shown) [Example 7, 1-Acetyl-6-benzoylamino-4-phenyl-1,2,3,4-tetrahydro-2,2,4-trimethylquinoline] | < 100
CC(=O)N1c2ccc(NC(=O)c3ccc(C(F)(F)F)cc3)cc2C(C)(c2ccccc2)CC1(C)C (stereo not shown) [Example 8, 1-Acetyl-4-phenyl-1,2,3,4-tetrahydro-6-(4-[trifluoromethyl]benzoyl)amino-2,2,4-trimethylquinoline] | < 100
CC(=O)N1c2ccc(NC(=O)CN3CCN(c4ccccc4)CC3)cc2C(C)(c2ccccc2)CC1(C)C (stereo not shown) [Example 30, 1-Acetyl-6-([4-{1-phenyl}-piperazinyl]methylcarbonyl)amino-4-phenyl-1,2,3,4-tetrahydro-2,2,4-trimethylquinoline] | < 100
CC(=O)N1c2ccc(NC(=O)CCC34CC5CC(CC(C5)C3)C4)cc2C(C)(c2ccccc2)CC1(C)C (stereo not shown) [Example 24, 1-Acetyl-6-(3-[adamantan-1-yl]propionyl)amino-4-phenyl-1,2,3,4-tetrahydro-2,2,4-trimethylquinoline] | < 100
CC(=O)N1c2ccc(NC(=O)c3ccc(-c4ccccc4)cc3)cc2C(C)(c2ccccc2)CC1(C)C (stereo not shown) [Example 12, 1-Acetyl-4-phenyl-6-(4-phenylbenzoyl)amino-1,2,3,4-tetrahydro-2,2,4-trimethylquinoline] | < 100
CC(=O)N1c2ccc(NC(=O)c3ccccc3OS(C)(=O)=O)cc2C(C)(c2ccccc2)CC1(C)C (stereo not shown) [Example 58, 1-Acetyl-6-(2-methylsulfonyloxybenzoyl)amino-4-phenyl-1,2,3,4-tetrahydro-2,2,4-trimethylquinoline] | < 100
CC(=O)N1c2ccc(NC(=O)c3cc(Br)cc(Br)c3)cc2C(C)(c2ccccc2)CC1(C)C (stereo not shown) [Example 50, 1-Acetyl-6-(3,5-dibromobenzoyl)amino-4-phenyl-1,2,3,4-tetrahydro-2,2,4-trimethylquinoline] | < 100
CC(=O)N1c2ccc(NC(=O)CC(C)C)cc2C(C)(c2ccccc2)CC1(C)C (stereo not shown) [Example 23, 1-Acetyl-6-(isovaleryl)amino-4-phenyl-1,2,3,4-tetrahydro-2,2,4-trimethylquinoline] | < 100
COc1cc(C(=O)Nc2ccc3c(c2)C(C)(c2ccccc2)CC(C)(C)N3C(C)=O)cc(OC)c1OC (stereo not shown) [Example 52, 1-Acetyl-6-(3,4,5-trimethoxybenzoyl)amino-4-phenyl-1,2,3,4-tetrahydro-2,2,4-trimethylquinoline] | < 100
CNc1ccc(Br)cc1C(=O)Nc1ccc2c(c1)C(C)(c1ccccc1)CC(C)(C)N2C(C)=O (stereo not shown) [Example 51, 1-Acetyl-6-(5-bromo-2-methylaminobenzoyl)amino-4-phenyl-1,2,3,4-tetrahydro-2,2,4-trimethylquinoline] | < 100
CC(=O)N1c2ccc(OC(=O)c3ccc(-c4ccccc4)cc3)cc2C(C)(c2ccccc2)CC1(C)C (stereo not shown) [Example 37, 1-Acetyl-6-(4-phenylbenzoyl)oxy-4-phenyl-1,2,3,4-tetrahydro-2,2,4-trimethylquinoline] | < 100
CC(=O)N1c2ccc(NC(=O)c3ccccc3OC(=O)N3CCOCC3)cc2C(C)(c2ccccc2)CC1(C)C (stereo not shown) [Example 63, 1-Acetyl-6-(2-[morpholino-4-carbonyl]oxybenzoyl)amino-4-phenyl-1,2,3,4-tetrahydro-2,2,4-trimethylquinoline] | < 100
COc1cc(NC(=O)c2ccc(-c3ccccc3)cc2)cc2c1N(C(C)=O)C(C)(C)CC2(C)c1ccccc1 (stereo not shown) [Example 46, 1-Acetyl-6-(4-phenylbenzoyl)amino-8-methoxy-4-phenyl-1,2,3,4-tetrahydro-2,2,4-trimethylquinoline] | < 100
COc1c(Cl)cc(Cl)c(OC)c1C(=O)Nc1ccc2c(c1)C(C)(c1ccccc1)CC(C)(C)N2C(C)=O (stereo not shown) [Example 53, 1-Acetyl-6-(3,5-dichloro-2,6-dimethoxybenzoyl)amino-4-phenyl-1,2,3,4-tetrahydro-2,2,4-trimethylquinoline] | < 100
CC(=O)N1c2ccc(NC(=O)c3ccc(-c4ccc(Cl)cc4)cc3)cc2C(C)(c2ccccc2)CC1(C)C (stereo not shown) [Example 13, 1-Acetyl-6-(4-[4-chlorophenyl]benzoyl)amino-4-phenyl-1,2,3,4-tetrahydro-2,2,4-trimethylquinoline] | < 100
